US12577234B2, “Antagonists of the muscarinic acetylcholine receptor M4” (Vanderbilt University, priority 2017, dated 2026)

What was measured:
[1] = tested on: haloperidol-induced catalepsy in mice; experiment: catalepsy induced by the DA receptor antagonist haloperidol; assay type: in vivo
[2] = tested on: M4 knockout mice; conditions: but not the other four mAChR subtypes; cited from earlier work
[3] = biological target: T1, human mAChR M4 (Homo sapiens, UniProt P08173); experiment: mAChR M4 cell-based functional assay (calcium mobilization, EC80 acetylcholine), human M4; conditions: Table 10; for IC50: M4/Gqi5/CHO-K1 cells, decrease of EC80 acetylcholine response
T1 construct: expressed in transfected cells; host or cells: CHO-K1 (ATCC), stably co-expressing chimeric G protein Gqi5
T1 sequence (P08173 1-479): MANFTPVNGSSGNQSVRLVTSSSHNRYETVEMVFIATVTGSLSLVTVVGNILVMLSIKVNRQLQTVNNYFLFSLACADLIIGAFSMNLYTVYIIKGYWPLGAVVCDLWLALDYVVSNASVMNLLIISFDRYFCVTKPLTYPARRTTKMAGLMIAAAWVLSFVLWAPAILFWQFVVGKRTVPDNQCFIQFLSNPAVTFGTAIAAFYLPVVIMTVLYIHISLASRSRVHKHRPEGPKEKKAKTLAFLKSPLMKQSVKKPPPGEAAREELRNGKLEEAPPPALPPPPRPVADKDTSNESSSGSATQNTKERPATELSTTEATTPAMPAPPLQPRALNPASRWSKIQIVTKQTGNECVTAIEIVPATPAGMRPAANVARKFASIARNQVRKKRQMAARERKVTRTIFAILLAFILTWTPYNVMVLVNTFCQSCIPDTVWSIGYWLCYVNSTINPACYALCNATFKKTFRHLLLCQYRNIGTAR
How it was run: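 CHO-K1 cells stably expressing human M4 with chimeric Gqi5; intracellular calcium rise read on FDSS as fluorescence static ratio at 1 Hz. Compounds in 10-point 1:3 dilution series; IC50 taken as concentration-dependent decrease of the EC80 acetylcholine response, four-parameter logistic fit.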

[4] = biological target: T2, rat mAChR M4 (Rattus norvegicus, UniProt P08485); experiment: mAChR M4 cell-based functional assay (calcium mobilization, EC80 acetylcholine), rat M4; conditions: Table 10; for IC50: M4/Gqi5/CHO-K1 cells, decrease of EC80 acetylcholine response
T2 construct: expressed in transfected cells; host or cells: CHO-K1 (ATCC), stably co-expressing chimeric G protein Gqi5
T2 sequence (P08485 1-478): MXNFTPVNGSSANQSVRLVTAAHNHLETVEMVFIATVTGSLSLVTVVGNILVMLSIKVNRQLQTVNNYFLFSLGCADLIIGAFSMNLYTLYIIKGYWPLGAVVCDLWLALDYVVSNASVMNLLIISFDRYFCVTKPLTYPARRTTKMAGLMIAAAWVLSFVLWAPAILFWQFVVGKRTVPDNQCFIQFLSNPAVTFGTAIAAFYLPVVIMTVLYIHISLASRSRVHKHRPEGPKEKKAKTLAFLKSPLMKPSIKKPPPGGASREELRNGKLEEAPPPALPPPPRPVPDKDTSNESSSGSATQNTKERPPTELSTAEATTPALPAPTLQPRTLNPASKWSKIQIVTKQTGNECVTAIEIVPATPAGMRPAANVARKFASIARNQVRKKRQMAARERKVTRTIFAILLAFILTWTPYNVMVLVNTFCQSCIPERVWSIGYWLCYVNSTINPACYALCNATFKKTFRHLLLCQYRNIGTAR
Procedure: Human or rat M4 cDNA, along with the chimeric G protein Gqi5, were transfected into Chinese hamster ovary (CHO-K1) cells purchased from the American Type Culture Collection using Lipofectamine2000. M4/Gqi5/CHO cells were grown in Ham's F-12 medium containing 10% heat-inactivated fetal bovine serum (FBS), 20 mM HEPES, 500 μg/mL G418 sulfate, and 200 μg/mL Hygromycin B.
For high throughput measurement of agonist-evoked increases in intracellular calcium, CHO-K1 cells stably expressing muscarinic receptors were plated in growth medium lacking G418 and hygromycin at 15,000 cells/20 μL/well in Greiner 384-well black-walled, tissue culture (TC)-treated, clear-bottom plates (VWR). Cells were incubated overnight at 37° C. and 5% CO2. The next day, cells were washed using an ELX 405 (BioTek) with assay buffer; the final volume was then aspirated to 20 μL. Next, 20 μL of a 2.3 μM stock of Fluo-4/acetoxymethyl ester (Invitrogen, Carlsbad, CA), prepared as a 2.3 mM stock in DMSO and mixed in a 1:1 ratio with 10% (w/v) Pluronic F-127 and diluted in assay buffer, was added to the wells and the cell plates were incubated for 50 min at 37° C. and 5% CO2. Dye was removed by washing with the ELX 405 and the final volume was aspirated to 20 μL. Compound master plates were formatted in a 10 point concentration-response curve (CRC) format (1:3 dilutions) in 100% DMSO with a starting concentration of 10 or 1 mM using a BRAVO liquid handler (Agilent). Test compound CRCs were then transferred to daughter plates (240 nL) using the Echo acoustic plate reformatter (Labcyte, Sunnyvale, CA) and then diluted into assay buffer (40 μL) to a 2× stock using a Thermo Fisher Combi (Thermo Fisher Scientific, Waltham, MA).
Calcium flux was measured using the Functional Drug Screening System (FDSS) 6000 or 7000 (Hamamatsu Corporation, Tokyo, Japan) as an increase in the fluorescent static ratio. Compounds were applied to cells (20 μL, 2×) using the automated system of the FDSS at 2 seconds into the protocol and the data were collected at 1 Hz. At 143 s, 10 μL of an EC20 concentration of the muscarinic receptor agonist acetylcholine was added (5×), followed by the addition of 12 μL of an EC80 concentration of acetylcholine at the 268 s time point (5×). Agonist activity was analyzed as a concentration-dependent increase in calcium mobilization upon compound addition. Positive allosteric modulator activity was analyzed as a concentration-dependent increase in the EC20 acetylcholine response. Antagonist activity was analyzed as a concentration-dependent decrease in the EC80 acetylcholine response; for the purposes of the tables herein, an IC50 (inhibitory concentration 50) was calculated as a concentration-dependent decrease of the response elicited by an EC80 concentration of acetylcholine. Concentration-response curves were generated using a four-parameter logistical equation in XLFit curve fitting software (IDBS, Bridgewater, NJ) for Excel (Microsoft, Redmond, WA) or Prism (GraphPad Software, Inc., San Diego, CA) or the Dotmatics software platform (Dotmatics, Bishop's Stortford, UK).

Row | SMILES | Human M4 Emin [3] | IC50 [3] | Rat M4 Emin [4] | IC50 [4] | reduction of haloperidol-induced catalepsy ([1]; M4KO mice) | reversal of haloperidol-induced catalepsy ([1]; WT mice) | locomotor-activating effects [2]
1 | CN1[C@@H]2C[C@@H](OC(=O)[C@H](CO)c3ccccc3)C[C@H]1[C@@H]1O[C@@H]12 [scopolamine] | – | – | – | – | ineffective in reducing catalepsy | completely reversed | dramatically reduced
2 | CC(=O)Nc1ccc(-c2ccc(N[C@H]3C[C@@H]4CN(CCC(C)(C)C)C[C@@H]4C3)nn2)cc1 [Compound 140, N-[4-[6-[[(3aR,5s,6aS)-2-(3,3-dimethylbutyl)-3,3a,4,5,6,6a-hexahydro-1H-cyclopenta[c]pyrrol-5-yl]amino]pyridazin-3-yl]phenyl]acetamide] | 5% | 1.08 nM | 3% | 17.1 nM | – | – | –
3 | c1cc(-c2ccc(N[C@H]3C[C@@H]4CN(CC5CCOCC5)C[C@@H]4C3)nn2)cs1 [Compound 227, (3aR,5s,6aS)-2-(tetrahydropyran-4-ylmethyl)-N-[6-(3-thienyl)pyridazin-3-yl]-3,3a,4,5,6,6a-hexahydro-1H-cyclopenta[c]pyrrol-5-amine] | 5% | 8.4 nM | 13% | 2230 nM | – | – | –
4 | CC(C)(C)CCN1C[C@H]2C[C@H](Oc3ccc(Cl)nn3)C[C@H]2C1 [Compound 128, (3aR,5s,6aS)-5-(6-chloropyridazin-3-yl)oxy-2-(3,3-dimethylbutyl)-3,3a,4,5,6,6a-hexahydro-1H-cyclopenta[c]pyrrole] | 5% | 1090 nM | 17% | 6330 nM | – | – | –
5 | CC(=O)Nc1ccc(-c2ccc(O[C@H]3C[C@@H]4CN(CC5CCOCC5)C[C@@H]4C3)nn2)cc1 [Compound 132, N-[4-[6-[[(3aR,5s,6aS)-2-(tetrahydropyran-4-ylmethyl)-3,3a,4,5,6,6a-hexahydro-1H-cyclopenta[c]pyrrol-5-yl]oxy]pyridazin-3-yl]phenyl]acetamide] | 6% | 648 nM | 6% | 995 nM | – | – | –
6 | CC(=O)Nc1ccc(-c2ccc(O[C@H]3C[C@@H]4CN(CCC(C)(C)C)C[C@@H]4C3)nn2)cc1 [Compound 129, N-[4-[6-[[(3aR,5s,6aS)-2-(3,3-dimethylbutyl)-3,3a,4,5,6,6a-hexahydro-1H-cyclopenta[c]pyrrol-5-yl]oxy]pyridazin-3-yl]phenyl]acetamide] | 4% | 91.2 nM | 4% | 195 nM | – | – | –

Further molecules by falling IC50 [3], results first:

Row | Human M4 Emin [3] | IC50 [3] | Rat M4 Emin [4] | IC50 [4] | SMILES | reduction of haloperidol-induced catalepsy ([1]; M4KO mice) | reversal of haloperidol-induced catalepsy ([1]; WT mice) | locomotor-activating effects [2]
7 | 3% | 59.1 nM | 3% | 382 nM | CC(C)(C)CCN1C[C@H]2C[C@H](Oc3ccc(-c4ccc5c(c4)OCO5)nn3)C[C@H]2C1 [Compound 138, (3aR,5s,6aS)-5-[6-(1,3-benzodioxol-5-yl)pyridazin-3-yl]oxy-2-(3,3-dimethylbutyl)-3,3a,4,5,6,6a-hexahydro-1H-cyclopenta[c]pyrrole] | – | – | –
8 | 6% | 22 nM | 14% | 605 nM | c1csc(-c2ccc(N[C@H]3C[C@@H]4CN(CC5CCOCC5)C[C@@H]4C3)nn2)c1 [Compound 226, (3aR,5s,6aS)-2-(tetrahydropyran-4-ylmethyl)-N-[6-(2-thienyl)pyridazin-3-yl]-3,3a,4,5,6,6a-hexahydro-1H-cyclopenta[c]pyrrol-5-amine] | – | – | –
9 | 3% | 19.8 nM | 3% | 313 nM | CC(C)(C)CCN1C[C@H]2C[C@H](Oc3ccc(-c4cc(F)ccc4Cl)nn3)C[C@H]2C1 [Compound 137, (3aR,5s,6aS)-5-[6-(2-chloro-5-fluoro-phenyl)pyridazin-3-yl]oxy-2-(3,3-dimethylbutyl)-3,3a,4,5,6,6a-hexahydro-1H-cyclopenta[c]pyrrole] | – | – | –
10 | 4% | 14.8 nM | 3% | 138 nM | CC(C)(C)CCN1C[C@H]2C[C@H](Nc3ccc(-c4ccc(F)cc4Cl)nn3)C[C@H]2C1 [Compound 141, (3aR,5s,6aS)-N-[6-(2-chloro-4-fluoro-phenyl)pyridazin-3-yl]-2-(3,3-dimethylbutyl)-3,3a,4,5,6,6a-hexahydro-1H-cyclopenta[c]pyrrol-5-amine] | – | – | –
11 | 3% | 6.39 nM | 6% | 121 nM | FC(F)Oc1ccc(-c2ccc(N[C@H]3C[C@@H]4CN(CC5CCOCC5)C[C@@H]4C3)nn2)cc1 [Compound 223, (3aR,5s,6aS)-N-[6-[4-(difluoromethoxy)phenyl]pyridazin-3-yl]-2-(tetrahydropyran-4-ylmethyl)-3,3a,4,5,6,6a-hexahydro-1H-cyclopenta[c]pyrrol-5-amine] | – | – | –
12 | 4% | 5.32 nM | 8% | 490 nM | c1cc(C2CC2)ncc1-c1ccc(N[C@H]2C[C@@H]3CN(CC4CCOCC4)C[C@@H]3C2)nn1 [Compound 232, (3aR,5s,6aS)-N-[6-(6-cyclopropyl-3-pyridyl)pyridazin-3-yl]-2-(tetrahydropyran-4-ylmethyl)-3,3a,4,5,6,6a-hexahydro-1H-cyclopenta[c]pyrrol-5-amine] | – | – | –
13 | 3% | 5 nM | 6% | 63.6 nM | COc1ccc(-c2ccc(N[C@H]3C[C@@H]4CN(CC5CCOCC5)C[C@@H]4C3)nn2)cc1F [Compound 222, (3aR,5s,6aS)-N-[6-(3-fluoro-4-methoxy-phenyl)pyridazin-3-yl]-2-(tetrahydropyran-4-ylmethyl)-3,3a,4,5,6,6a-hexahydro-1H-cyclopenta[c]pyrrol-5-amine] | – | – | –
